Laboratory results as given in ChEMBL document CHEMBL4417633, “Inhibitory polypeptides specific to WNT inhibitors” (2017).
Active and inactive are the calls of the source. The calls are words filed in the database; no cut-off is given here. Where a SMILES comes first, the peptide text is derived from it.

Assays:
[1] = target: T1, Dickkopf WNT-signaling pathway inhibitor 1 (Rattus norvegicus) (UniProt A6I0Z0); test: (§1) Inhibition of biotin-labeled rat recombinant DKK1 assessed as reduction in DKK1 interaction with LRP-6/Fc incubated overnight by chemiluminescence based Alpha-screen assay
T1 sequence (whole entry): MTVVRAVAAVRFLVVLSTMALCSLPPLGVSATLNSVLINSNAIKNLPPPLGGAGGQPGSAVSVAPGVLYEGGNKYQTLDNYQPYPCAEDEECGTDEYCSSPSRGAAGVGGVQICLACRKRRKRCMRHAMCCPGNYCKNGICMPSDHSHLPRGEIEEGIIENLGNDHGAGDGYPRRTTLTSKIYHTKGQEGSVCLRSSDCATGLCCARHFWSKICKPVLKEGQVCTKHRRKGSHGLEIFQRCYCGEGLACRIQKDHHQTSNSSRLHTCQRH

[2] = target: T2, Dickkopf-related protein 1 (Homo sapiens) (UniProt O94907); test: (§2) Inhibition of biotin-labeled human recombinant DKK1 assessed as reduction in DKK1 interaction with LRP-6/Fc incubated overnight by chemiluminescence based Alpha-screen assay
T2 sequence (whole entry): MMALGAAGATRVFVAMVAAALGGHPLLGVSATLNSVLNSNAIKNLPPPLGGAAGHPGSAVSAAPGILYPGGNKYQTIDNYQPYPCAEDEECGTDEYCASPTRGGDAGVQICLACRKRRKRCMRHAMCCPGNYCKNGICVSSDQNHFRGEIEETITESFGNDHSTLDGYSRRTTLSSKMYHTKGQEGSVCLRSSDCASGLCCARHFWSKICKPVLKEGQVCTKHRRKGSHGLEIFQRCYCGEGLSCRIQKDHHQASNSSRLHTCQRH

[3] = target: T3, Dickkopf-related protein 1 (Homo sapiens, UniProt O94907); test: Inhibition of human DKK1 in MC3T3E1/TetON-Wnt1/STF-Luc#5 cells assessed as DKK1 neutralizing activity by Wnt1-induced TCF/LEF luciferase reporter gene assay
T3 sequence (O94907 whole entry): T2 sequence (whole entry)

[4] = target: T4, Dickkopf WNT-signaling pathway inhibitor 1 (Rattus norvegicus, UniProt A6I0Z0); test: as §1
T4 sequence (A6I0Z0 whole entry): T1 sequence (whole entry)

[5] = target: T3, Dickkopf-related protein 1; test: as §2

inhibition [1] | inhibition [2] | IC50 [3] | IC50 [4] | IC50 [5] | Structure (SMILES)
Active | Active | 0.8 to 3 nM |  |  | CC[C@H](C)[C@H](NC(=O)[C@H](CS)NC(=O)[C@H](CC(=O)O)NC(=O)[C@@H]1CCCN1C(=O)[C@H](Cc1ccccc1)NC(=O)CNC(=O)[C@H](CC(=O)O)NC(=O)[C@H](CS)NC(=O)[C@H](CCCNC(=N)N)NC(=O)[C@H](Cc1c[nH]c2ccccc12)NC(=O)[C@H](CCC(=O)O)NC(=O)[C@H](CCSC)NC(=O)[C@@H]1CCCN1C(=O)[C@H](Cc1ccc(O)cc1)NC(=O)[C@H](CS)NC(=O)[C@H](Cc1cnc[nH]1)NC(=O)[C@@H]1CCCN1C(=O)[C@H](Cc1cnc[nH]1)NC(=O)[C@H](CC(N)=O)NC(=O)[C@H](CCCNC(=N)N)NC(=O)[C@H](CS)NC(=O)[C@H](CCCCN)NC(=O)[C@H](Cc1ccccc1)NC(=O)[C@H](Cc1ccc(O)cc1)NC(=O)[C@H](CO)NC(=O)[C@H](C)NC(=O)[C@@H]1CCCN1C(=O)[C@@H](N)CS)C(=O)N[C@@H](CC(=O)O)C(=O)NCC(=O)N[C@@H](CO)C(=O)N[C@@H](CC(=O)O)C(=O)N[C@@H](CCC(=O)O)C(=O)N[C@H](C(=O)N[C@@H](C)C(=O)N[C@@H](CS)C(=O)NCC(=O)NCC(=O)NCC(=O)NCC(=O)O)[C@H](C)O
Active | Active | 0.8 to 3 nM |  |  | CSCC[C@H](NC(=O)[C@@H]1CCCN1C(=O)[C@H](Cc1cnc[nH]1)NC(=O)[C@H](CS)NC(=O)[C@@H]1CCCN1C(=O)[C@@H]1CCCN1C(=O)[C@H](CC(=O)O)NC(=O)[C@H](CC(N)=O)NC(=O)[C@H](CCCNC(=N)N)NC(=O)[C@H](CS)NC(=O)[C@H](CCC(N)=O)NC(=O)[C@H](Cc1ccccc1)NC(=O)[C@H](Cc1ccc(O)cc1)NC(=O)[C@@H]1CCCN1C(=O)[C@H](C)NC(=O)[C@@H]1CCCN1C(=O)[C@@H](N)CS)C(=O)N[C@@H](CC(=O)O)C(=O)N[C@@H](Cc1c[nH]c2ccccc12)C(=O)N[C@@H](CCCNC(=N)N)C(=O)N[C@@H](CS)C(=O)N[C@@H](CC(=O)O)C(=O)NCC(=O)N[C@@H](Cc1ccccc1)C(=O)N1CCC[C@H]1C(=O)N[C@@H](CC(=O)O)C(=O)N[C@@H](CS)C(=O)N[C@H](C(=O)N[C@@H](CC(=O)O)C(=O)NCC(=O)N[C@@H](CO)C(=O)N[C@@H](CC(=O)O)C(=O)N[C@@H](CCC(=O)O)C(=O)N[C@@H](CCCCN)C(=O)NCC(=O)N[C@@H](CS)C(=O)NCC(=O)NCC(=O)NCC(=O)NCC(=O)O)C(C)C (H-CPAPYFQCRNDPPCHPMDWRCDGFPDCVDGSDEKGCGGGG-OH)
Active | Active | 0.8 to 3 nM |  |  | CSCC[C@H](NC(=O)[C@@H]1CCCN1C(=O)[C@H](Cc1ccc(O)cc1)NC(=O)[C@H](CS)NC(=O)[C@H](Cc1cnc[nH]1)NC(=O)[C@@H]1CCCN1C(=O)[C@H](Cc1cnc[nH]1)NC(=O)[C@H](CC(N)=O)NC(=O)[C@H](CCCNC(=N)N)NC(=O)[C@H](CS)NC(=O)[C@H](CCCCN)NC(=O)[C@H](Cc1ccccc1)NC(=O)[C@H](Cc1ccc(O)cc1)NC(=O)[C@H](CO)NC(=O)[C@H](C)NC(=O)[C@@H]1CCCN1C(=O)[C@@H](N)CS)C(=O)N[C@@H](CCC(=O)O)C(=O)N[C@@H](Cc1c[nH]c2ccccc12)C(=O)N[C@@H](CCCNC(=N)N)C(=O)N[C@@H](CS)C(=O)N[C@@H](CC(=O)O)C(=O)NCC(=O)N[C@@H](Cc1ccccc1)C(=O)N[C@@H](C)C(=O)N[C@@H](CC(=O)O)C(=O)N[C@@H](CS)C(=O)N[C@H](C(=O)N[C@@H](CC(=O)O)C(=O)NCC(=O)N[C@@H](CO)C(=O)N[C@@H](CC(=O)O)C(=O)N[C@@H](CCC(=O)O)C(=O)N[C@@H](CC(C)C)C(=O)N[C@@H](CO)C(=O)N[C@@H](CS)C(=O)NCC(=O)NCC(=O)NCC(=O)NCC(=O)O)C(C)C (H-CPASYFKCRNHPHCYPMEWRCDGFADCVDGSDELSCGGGG-OH)
 |  |  | ≤ 1 nM | ≤ 1 nM | CSCC[C@H](NC(=O)[C@@H]1CCCN1C(=O)[C@H](Cc1ccc(O)cc1)NC(=O)[C@H](CS)NC(=O)[C@H](Cc1cnc[nH]1)NC(=O)[C@H](CC(N)=O)NC(=O)[C@H](CCCCN)NC(=O)[C@H](CC(N)=O)NC(=O)[C@H](CCCNC(=N)N)NC(=O)[C@H](CS)NC(=O)[C@H](CCCCN)NC(=O)[C@H](Cc1ccccc1)NC(=O)[C@H](Cc1ccc(O)cc1)NC(=O)[C@H](CO)NC(=O)[C@@H](NC(=O)[C@@H]1CCCN1C(=O)[C@@H](N)CS)C(C)C)C(=O)N[C@@H](CCC(=O)O)C(=O)N[C@@H](Cc1c[nH]c2ccccc12)C(=O)N[C@@H](CCCNC(=N)N)C(=O)N[C@@H](CS)C(=O)N[C@@H](CC(=O)O)C(=O)NCC(=O)N[C@@H](Cc1ccccc1)C(=O)N1CCC[C@H]1C(=O)N[C@@H](CC(=O)O)C(=O)N[C@@H](CS)C(=O)N[C@@H](CCC(=O)O)C(=O)N[C@@H](CC(=O)O)C(=O)NCC(=O)N[C@@H](CO)C(=O)N[C@@H](CC(=O)O)C(=O)N[C@@H](CCC(=O)O)C(=O)N[C@@H](CCCCN)C(=O)NCC(=O)N[C@@H](CS)C(=O)N1CCC[C@H]1C(=O)N[C@@H](Cc1ccc(O)cc1)C(=O)N[C@@H](CCCNC(=N)N)C(=O)N[C@H](C(=O)O)[C@@H](C)O (H-CPVSYFKCRNKNHCYPMEWRCDGFPDCEDGSDEKGCPYRT-OH)
 |  |  | ≤ 1 nM | ≤ 1 nM | CC[C@H](C)[C@H](NC(=O)[C@H](CCCNC(=N)N)NC(=O)[C@H](CS)NC(=O)[C@H](CCC(N)=O)NC(=O)[C@H](Cc1ccccc1)NC(=O)[C@H](Cc1ccc(O)cc1)NC(=O)[C@H](CO)NC(=O)[C@@H](NC(=O)[C@@H]1CCCN1C(=O)[C@@H](N)CS)C(C)C)C(=O)N[C@@H](Cc1ccc(O)cc1)C(=O)N[C@@H](CC(N)=O)C(=O)N[C@@H](Cc1cnc[nH]1)C(=O)N[C@@H](CS)C(=O)N[C@@H](Cc1ccc(O)cc1)C(=O)N1CCC[C@H]1C(=O)N[C@@H](CCSC)C(=O)N[C@@H](CCC(=O)O)C(=O)N[C@@H](Cc1c[nH]c2ccccc12)C(=O)N[C@@H](CCCNC(=N)N)C(=O)N[C@@H](CS)C(=O)N[C@@H](CC(=O)O)C(=O)NCC(=O)N[C@@H](Cc1ccccc1)C(=O)N[C@@H](CCC(=O)O)C(=O)N[C@@H](CC(=O)O)C(=O)N[C@@H](CS)C(=O)N[C@H](C(=O)N[C@@H](CC(=O)O)C(=O)NCC(=O)N[C@@H](CO)C(=O)N[C@@H](CC(=O)O)C(=O)N[C@@H](CCC(=O)O)C(=O)N[C@@H](CCCCN)C(=O)NCC(=O)N[C@@H](CS)C(=O)N1CCC[C@H]1C(=O)N[C@@H](Cc1ccc(O)cc1)C(=O)N[C@@H](CCCNC(=N)N)C(=O)N[C@H](C(=O)O)[C@@H](C)O)C(C)C (H-CPVSYFQCRIYNHCYPMEWRCDGFEDCVDGSDEKGCPYRT-OH)
 |  |  | ≤ 1 nM | ≤ 1 nM | CSCC[C@H](NC(=O)[C@@H]1CCCN1C(=O)[C@H](Cc1ccc(O)cc1)NC(=O)[C@H](CS)NC(=O)[C@H](Cc1cnc[nH]1)NC(=O)[C@H](CC(N)=O)NC(=O)[C@H](Cc1cnc[nH]1)NC(=O)[C@H](Cc1ccc(O)cc1)NC(=O)[C@H](CCCNC(=N)N)NC(=O)[C@H](CS)NC(=O)[C@H](CCC(N)=O)NC(=O)[C@H](Cc1ccccc1)NC(=O)[C@H](Cc1ccc(O)cc1)NC(=O)[C@H](CO)NC(=O)[C@@H](NC(=O)[C@@H]1CCCN1C(=O)[C@@H](N)CS)C(C)C)C(=O)N[C@@H](CCC(=O)O)C(=O)N[C@@H](Cc1c[nH]c2ccccc12)C(=O)N[C@@H](CCCNC(=N)N)C(=O)N[C@@H](CS)C(=O)N[C@@H](CC(=O)O)C(=O)NCC(=O)N[C@@H](Cc1ccccc1)C(=O)N1CCC[C@H]1C(=O)N[C@@H](CC(=O)O)C(=O)N[C@@H](CS)C(=O)N[C@@H](CCC(=O)O)C(=O)N[C@@H](CC(=O)O)C(=O)N[C@@H](C)C(=O)N[C@@H](CO)C(=O)N[C@@H](CC(=O)O)C(=O)N[C@@H](CCC(=O)O)C(=O)N[C@@H](CCC(=O)O)C(=O)NCC(=O)N[C@@H](CS)C(=O)N1CCC[C@H]1C(=O)N[C@@H](Cc1ccc(O)cc1)C(=O)N[C@@H](CCCNC(=N)N)C(=O)N[C@H](C(=O)O)[C@@H](C)O (H-CPVSYFQCRYHNHCYPMEWRCDGFPDCEDASDEEGCPYRT-OH)
 |  |  | ≤ 1 nM | ≤ 1 nM | CSCC[C@H](NC(=O)[C@@H]1CCCN1C(=O)[C@H](Cc1ccc(O)cc1)NC(=O)[C@H](CS)NC(=O)[C@H](Cc1cnc[nH]1)NC(=O)[C@H](CC(N)=O)NC(=O)[C@H](CC(C)C)NC(=O)[C@H](Cc1cnc[nH]1)NC(=O)[C@H](CCCNC(=N)N)NC(=O)[C@H](CS)NC(=O)[C@H](CCCNC(=N)N)NC(=O)[C@H](Cc1ccccc1)NC(=O)[C@H](Cc1ccc(O)cc1)NC(=O)[C@H](CO)NC(=O)[C@@H](NC(=O)[C@@H]1CCCN1C(=O)[C@@H](N)CS)C(C)C)C(=O)N[C@@H](CCC(=O)O)C(=O)N[C@@H](Cc1c[nH]c2ccccc12)C(=O)N[C@@H](CCCNC(=N)N)C(=O)N[C@@H](CS)C(=O)N[C@@H](CC(=O)O)C(=O)NCC(=O)N[C@@H](Cc1ccccc1)C(=O)N[C@@H](CC(C)C)C(=O)N[C@@H](CC(=O)O)C(=O)N[C@@H](CS)C(=O)N[C@H](C(=O)N[C@@H](CC(=O)O)C(=O)NCC(=O)N[C@@H](CO)C(=O)N[C@@H](CC(=O)O)C(=O)N[C@@H](CCC(=O)O)C(=O)N[C@@H](CCC(=O)O)C(=O)NCC(=O)N[C@@H](CS)C(=O)N1CCC[C@H]1C(=O)N[C@@H](Cc1ccc(O)cc1)C(=O)N[C@@H](CCCNC(=N)N)C(=O)N[C@H](C(=O)O)[C@@H](C)O)C(C)C (H-CPVSYFRCRHLNHCYPMEWRCDGFLDCVDGSDEEGCPYRT-OH)
